# Experimental data published in publication PMC7869707 (European Journal of Medicinal Chemistry, 2021).
# Assays:
# VSV-G PsV = type: cell-based
# SARS-CoV-2 PsV = experiment: microbe, parasite or virus in culture; type: cell-based; settings: for IC50: Severe acute respiratory syndrome coronavirus 2, 293T/ACE2, 48 h, read-out: IC50 (50% inhibitory concentration) against infection of 293T-ACE2 cells by SARS-CoV-2 PsV
# [1] = target: SARS-CoV-2 S binding to the ACE2 receptor (Severe acute respiratory syndrome coronavirus 2, UniProt P0DTC2)
# SARS-CoV-2 S2 subunit = SARS-CoV-2 S2 subunit (Severe acute respiratory syndrome coronavirus 2, UniProt P0DTC2); type: binding
# [2] = system: SARS-CoV-2 S protein mediated membrane fusion of Vero-E6 cells; type: cell-based
# SARS-CoV-2 S-trimer = SARS-CoV-2 S-trimer (Severe acute respiratory syndrome coronavirus 2, UniProt P0DTC2); experiment: biochemical; type: binding
# 293T-ACE2 cells = experiment: Cytotoxicity assay; type: cell-based; settings: MTT
# Vero-E6 cells = experiment: Cytotoxicity assay; type: cell-based; settings: MTT
smiles,measurement,setting,value
"C[C@@H]1O[C@@H](O[C@H]2[C@H](O[C@H]3CC[C@]4(C)[C@H]5CC=C6[C@@H]7CC(C)(C)CC[C@]7(C(=O)NCc7cccs7)CC[C@@]6(C)[C@]5(C)CC[C@H]4C3(C)C)O[C@H](CO)[C@@H](O[C@@H]3O[C@@H](C)[C@H](O)[C@@H](O)[C@H]3O)[C@@H]2O)[C@H](O)[C@H](O)[C@H]1O [Compound 12i, N-{3β-O-[2,4-di-O-(a-L-rhamnopyranosyl)-β-D-glucopyranosyl]-olean-12-en-28-oyl}-2-thiophenemethylamine]",Inhibition of VSV-G pseudoviral transduction,VSV-G PsV,no effect
same,IC50,SARS-CoV-2 PsV,< 6 µM
"C[C@@H]1O[C@@H](O[C@H]2[C@H](O[C@H]3CC[C@]4(C)[C@H]5CC=C6[C@@H]7CC(C)(C)CC[C@]7(C(=O)NCc7ccccc7)CC[C@@]6(C)[C@]5(C)CC[C@H]4C3(C)C)O[C@H](CO)[C@@H](O[C@@H]3O[C@@H](C)[C@H](O)[C@@H](O)[C@H]3O)[C@@H]2O)[C@H](O)[C@H](O)[C@H]1O [Compound 12f, N-{3β-O-[2,4-di-O-(a-L-rhamnopyranosyl)-β-D-glucopyranosyl]-olean-12-en-28-oyl}-benzylamine]",Effect on SARS-CoV-2 S binding to the ACE2 receptor,[1],no effect
same,Inhibition of VSV-G pseudoviral transduction,VSV-G PsV,no inhibition
same,Fold higher affinity with S2 subunit in relation to S1 subunit,SARS-CoV-2 S2 subunit,more than 1000 fold
same,Inhibition of membrane fusion mediated by SARS-CoV-2 S protein,[2],remarkably inhibit
same,Kd,SARS-CoV-2 S-trimer,0.94 µM
same,Cytotoxicity against 293T-ACE2 cells,293T-ACE2 cells,negligible cytotoxicity
same,Cytotoxicity against Vero-E6 cells,Vero-E6 cells,negligible cytotoxicity
"C[C@@H]1O[C@@H](O[C@H]2[C@H](O[C@H]3CC[C@]4(C)[C@H]5CC=C6[C@@H]7CC(C)(C)CC[C@]7(C(=O)OCc7ccccc7)CC[C@@]6(C)[C@]5(C)CC[C@H]4C3(C)C)O[C@H](CO)[C@@H](O[C@@H]3O[C@@H](C)[C@H](O)[C@@H](O)[C@H]3O)[C@@H]2O)[C@H](O)[C@H](O)[C@H]1O [Compound 2, 3β-O-[2,4-di-O-(α-L-rhamnopyranosyl)-β-D-glucopyranosyl]-olean-12-en-28-oic acid benzyl ester]",Cytotoxicity against 293T-ACE2 cells,293T-ACE2 cells,moderate cytotoxicity
"C[C@@H]1O[C@@H](O[C@H]2[C@H](O[C@H]3CC[C@]4(C)[C@H]5CC=C6[C@@H]7CC(C)(C)CC[C@]7(C(=O)NCc7ccccn7)CC[C@@]6(C)[C@]5(C)CC[C@H]4C3(C)C)O[C@H](CO)[C@@H](O[C@@H]3O[C@@H](C)[C@H](O)[C@@H](O)[C@H]3O)[C@@H]2O)[C@H](O)[C@H](O)[C@H]1O [Compound 12g, N-{3β-O-[2,4-di-O-(a-L-rhamnopyranosyl)-β-D-glucopyranosyl]-olean-12-en-28-oyl}-2-pyridinemethanamine]",Potency against SARS-CoV-2 PsV,SARS-CoV-2 PsV,loss of potency
"COc1ccccc1NC(=O)[C@]12CCC(C)(C)C[C@H]1C1=CC[C@@H]3[C@@]4(C)CC[C@H](O[C@@H]5O[C@H](CO)[C@@H](O[C@@H]6O[C@@H](C)[C@H](O)[C@@H](O)[C@H]6O)[C@H](O)[C@H]5O[C@@H]5O[C@@H](C)[C@H](O)[C@@H](O)[C@H]5O)C(C)(C)[C@@H]4CC[C@@]3(C)[C@]1(C)CC2 [Compound 12b, N-{3β-O-[2,4-di-O-(a-L-rhamnopyranosyl)-β-D-glucopyranosyl]-olean-12-en-28-oyl}-2-methoxyaniline]",Inhibition of VSV-G pseudoviral transduction,VSV-G PsV,no effect
same,IC50,SARS-CoV-2 PsV,< 6 µM
"C[C@@H]1O[C@@H](O[C@H]2[C@H](O[C@H]3CC[C@]4(C)[C@H]5CC=C6[C@@H]7CC(C)(C)CC[C@]7(C(=O)NCc7ccco7)CC[C@@]6(C)[C@]5(C)CC[C@H]4C3(C)C)O[C@H](CO)[C@@H](O[C@@H]3O[C@@H](C)[C@H](O)[C@@H](O)[C@H]3O)[C@@H]2O)[C@H](O)[C@H](O)[C@H]1O [Compound 12h, N-{3β-O-[2,4-di-O-(a-L-rhamnopyranosyl)-β-D-glucopyranosyl]-olean-12-en-28-oyl}-2-furyl-methylamin]",Potency against SARS-CoV-2 PsV,SARS-CoV-2 PsV,lacked potency
"C[C@@H]1O[C@@H](O[C@H]2[C@H](O[C@H]3CC[C@]4(C)[C@H]5CC=C6[C@@H]7CC(C)(C)CC[C@]7(C(=O)NCc7ccccc7F)CC[C@@]6(C)[C@]5(C)CC[C@H]4C3(C)C)O[C@H](CO)[C@@H](O[C@@H]3O[C@@H](C)[C@H](O)[C@@H](O)[C@H]3O)[C@@H]2O)[C@H](O)[C@H](O)[C@H]1O [Compound 12k, N-{3β-O-[2,4-di-O-(a-L-rhamnopyranosyl)-β-D-glucopyranosyl]-olean-12-en-28-oyl}-2-fluorobenzylamine]",Inhibition of VSV-G pseudoviral transduction,VSV-G PsV,no effect
same,IC50,SARS-CoV-2 PsV,< 6 µM
